# Test results reported in PubChem BioAssay (NCI).
#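 48-hour exposure; five concentrations; linearly interpolated endpoints. TGI: concentration producing complete growth inhibition.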
# How the values were obtained:
# Assay in all cases: NCI-60 cell line screen, 48 h
# OVCAR-3 ovarian = tested on: OVCAR-3 ovarian
# UACC-62 melanoma = tested on: UACC-62 melanoma
# ACHN renal = tested on: ACHN renal
# A498 renal = tested on: A498 renal
# HCC-2998 colon = tested on: HCC-2998 colon
# XF 498 CNS = tested on: XF 498 CNS
# OVCAR-8 ovarian = tested on: OVCAR-8 ovarian
# NCI-H460 lung = tested on: NCI-H460 lung
# M14 melanoma = tested on: M14 melanoma
# SF-295 CNS = tested on: SF-295 CNS
# UACC-257 melanoma = tested on: UACC-257 melanoma
# UO-31 renal = tested on: UO-31 renal
# NCI-H522 lung = tested on: NCI-H522 lung
# K-562 leukemia = tested on: K-562 leukemia
# SW-620 colon = tested on: SW-620 colon
# OVCAR-4 ovarian = tested on: OVCAR-4 ovarian
# A549 NSCLC = tested on: A549 NSCLC
# HL-60(TB) leukemia = tested on: HL-60(TB) leukemia
# SK-MEL-2 melanoma = tested on: SK-MEL-2 melanoma
# NCI-H226 lung = tested on: NCI-H226 lung
# 786-0 renal = tested on: 786-0 renal
# HT29 colon = tested on: HT29 colon
# KM12 colon = tested on: KM12 colon
# SR leukemia = tested on: SR leukemia
# HOP-92 NSCLC = tested on: HOP-92 NSCLC
# EKVX NSCLC = tested on: EKVX NSCLC
# SNB-19 CNS = tested on: SNB-19 CNS
# SK-OV-3 ovarian = tested on: SK-OV-3 ovarian
# SN12C renal = tested on: SN12C renal
# DMS 114 small cell lung = tested on: DMS 114 small cell lung
# SF-539 CNS = tested on: SF-539 CNS
# OVCAR-5 ovarian = tested on: OVCAR-5 ovarian
# TK-10 renal = tested on: TK-10 renal
# KM20L2 colon = tested on: KM20L2 colon
# U251 CNS = tested on: U251 CNS
# MALME-3M melanoma = tested on: MALME-3M melanoma
# HCT-116 colon = tested on: HCT-116 colon
# COLO 205 colon = tested on: COLO 205 colon
# LXFL 529 NSCLC = tested on: LXFL 529 NSCLC
# M19-MEL melanoma = tested on: M19-MEL melanoma
# SF-268 CNS = tested on: SF-268 CNS
# LOX IMVI melanoma = tested on: LOX IMVI melanoma
# SNB-75 CNS = tested on: SNB-75 CNS
# MOLT-4 leukemia = tested on: MOLT-4 leukemia
# DLD-1 colon = tested on: DLD-1 colon
# SK-MEL-5 melanoma = tested on: SK-MEL-5 melanoma
# RXF 393 renal = tested on: RXF 393 renal
# DMS 273 small cell lung = tested on: DMS 273 small cell lung
# SNB-78 CNS = tested on: SNB-78 CNS
# IGROV1 ovarian = tested on: IGROV1 ovarian
# HOP-18 NSCLC = tested on: HOP-18 NSCLC
# HCT-15 colon = tested on: HCT-15 colon
# CCRF-CEM leukemia = tested on: CCRF-CEM leukemia
# CAKI-1 renal = tested on: CAKI-1 renal
# RPMI-8226 leukemia = tested on: RPMI-8226 leukemia
# SK-MEL-28 melanoma = tested on: SK-MEL-28 melanoma
# NCI-H23 lung = tested on: NCI-H23 lung
# HOP-62 NSCLC = tested on: HOP-62 NSCLC
# RXF-631 renal = tested on: RXF-631 renal
# MDA-MB-435 = tested on: MDA-MB-435
# BT-549 breast = tested on: BT-549 breast
# MCF7 breast = tested on: MCF7 breast
# DU-145 prostate = tested on: DU-145 prostate
# T-47D breast = tested on: T-47D breast
# HS 578T breast = tested on: HS 578T breast
# PC-3 prostate = tested on: PC-3 prostate
# NCI/ADR-RES ovarian = tested on: NCI/ADR-RES ovarian
# MDA-N = tested on: MDA-N
# MDA-MB-231 breast = tested on: MDA-MB-231 breast
smiles,measurement,setting,value
O=Cc1ccccc1COC(=O)c1cc(C(=O)OCc2ccccc2C=O)c(C(=O)OCc2ccccc2C=O)cc1C(=O)OCc1ccccc1C=O,TGI,OVCAR-3 ovarian,> 100 µM
same,TGI,UACC-62 melanoma,> 100 µM
same,TGI,ACHN renal,> 100 µM
same,TGI,A498 renal,> 100 µM
same,TGI,HCC-2998 colon,> 100 µM
same,TGI,XF 498 CNS,> 100 µM
same,TGI,OVCAR-8 ovarian,> 100 µM
same,TGI,NCI-H460 lung,> 100 µM
same,TGI,M14 melanoma,> 100 µM
same,TGI,SF-295 CNS,> 100 µM
same,TGI,UACC-257 melanoma,> 100 µM
same,TGI,UO-31 renal,> 100 µM
same,TGI,NCI-H522 lung,> 100 µM
same,TGI,K-562 leukemia,> 100 µM
same,TGI,SW-620 colon,> 100 µM
same,TGI,OVCAR-4 ovarian,> 100 µM
same,TGI,A549 NSCLC,> 100 µM
same,TGI,HL-60(TB) leukemia,> 100 µM
same,TGI,SK-MEL-2 melanoma,> 100 µM
same,TGI,NCI-H226 lung,> 100 µM
same,TGI,786-0 renal,> 100 µM
same,TGI,HT29 colon,> 100 µM
same,TGI,KM12 colon,> 100 µM
same,TGI,SR leukemia,> 100 µM
same,TGI,HOP-92 NSCLC,> 100 µM
same,TGI,EKVX NSCLC,> 100 µM
same,TGI,SNB-19 CNS,> 100 µM
same,TGI,SK-OV-3 ovarian,> 100 µM
same,TGI,SN12C renal,> 100 µM
same,TGI,DMS 114 small cell lung,> 100 µM
same,TGI,SF-539 CNS,> 100 µM
same,TGI,OVCAR-5 ovarian,> 100 µM
same,TGI,TK-10 renal,> 100 µM
same,TGI,KM20L2 colon,> 100 µM
same,TGI,U251 CNS,> 100 µM
same,TGI,MALME-3M melanoma,> 100 µM
same,TGI,HCT-116 colon,> 100 µM
same,TGI,COLO 205 colon,> 100 µM
same,TGI,LXFL 529 NSCLC,> 100 µM
same,TGI,M19-MEL melanoma,> 100 µM
same,TGI,SF-268 CNS,> 100 µM
same,TGI,LOX IMVI melanoma,> 100 µM
same,TGI,SNB-75 CNS,65.4 µM
same,TGI,MOLT-4 leukemia,> 100 µM
same,TGI,DLD-1 colon,> 100 µM
same,TGI,SK-MEL-5 melanoma,> 100 µM
same,TGI,RXF 393 renal,> 100 µM
same,TGI,DMS 273 small cell lung,> 100 µM
same,TGI,SNB-78 CNS,> 100 µM
same,TGI,IGROV1 ovarian,> 100 µM
same,TGI,HOP-18 NSCLC,> 100 µM
same,TGI,HCT-15 colon,> 100 µM
same,TGI,CCRF-CEM leukemia,> 100 µM
same,TGI,CAKI-1 renal,> 100 µM
same,TGI,RPMI-8226 leukemia,> 100 µM
same,TGI,SK-MEL-28 melanoma,> 100 µM
same,TGI,NCI-H23 lung,> 100 µM
O=C(/C=C/c1ccc(Cl)c(Cl)c1)c1ccc2ccccc2c1,TGI,OVCAR-3 ovarian,> 100 µM
same,TGI,UACC-62 melanoma,> 100 µM
same,TGI,ACHN renal,> 100 µM
same,TGI,A498 renal,> 100 µM
same,TGI,HCC-2998 colon,> 100 µM
same,TGI,OVCAR-8 ovarian,> 100 µM
same,TGI,NCI-H460 lung,> 100 µM
same,TGI,M14 melanoma,> 100 µM
same,TGI,SF-295 CNS,> 100 µM
same,TGI,UACC-257 melanoma,> 100 µM
same,TGI,UO-31 renal,> 100 µM
same,TGI,NCI-H522 lung,> 100 µM
same,TGI,K-562 leukemia,> 100 µM
same,TGI,SW-620 colon,> 100 µM
same,TGI,OVCAR-4 ovarian,> 100 µM
same,TGI,A549 NSCLC,> 100 µM
same,TGI,HL-60(TB) leukemia,> 100 µM
same,TGI,SK-MEL-2 melanoma,> 100 µM
same,TGI,NCI-H226 lung,> 100 µM
same,TGI,786-0 renal,> 100 µM
same,TGI,HT29 colon,> 100 µM
same,TGI,KM12 colon,> 100 µM
same,TGI,HOP-62 NSCLC,> 100 µM
same,TGI,SR leukemia,> 100 µM
same,TGI,HOP-92 NSCLC,> 100 µM
same,TGI,EKVX NSCLC,> 100 µM
same,TGI,SNB-19 CNS,> 100 µM
same,TGI,SK-OV-3 ovarian,> 100 µM
same,TGI,SN12C renal,71.6 µM
same,TGI,DMS 114 small cell lung,> 100 µM
same,TGI,SF-539 CNS,> 100 µM
same,TGI,OVCAR-5 ovarian,> 100 µM
same,TGI,TK-10 renal,> 100 µM
same,TGI,KM20L2 colon,> 100 µM
same,TGI,U251 CNS,> 100 µM
same,TGI,MALME-3M melanoma,> 100 µM
same,TGI,HCT-116 colon,> 100 µM
same,TGI,COLO 205 colon,28.7 µM
same,TGI,LXFL 529 NSCLC,> 100 µM
same,TGI,M19-MEL melanoma,> 100 µM
same,TGI,SF-268 CNS,> 100 µM
same,TGI,LOX IMVI melanoma,> 100 µM
same,TGI,SNB-75 CNS,> 100 µM
same,TGI,MOLT-4 leukemia,> 100 µM
same,TGI,DLD-1 colon,> 100 µM
same,TGI,SK-MEL-5 melanoma,> 100 µM
same,TGI,RXF 393 renal,> 100 µM
same,TGI,DMS 273 small cell lung,> 100 µM
same,TGI,SNB-78 CNS,> 100 µM
same,TGI,IGROV1 ovarian,> 100 µM
same,TGI,RXF-631 renal,> 100 µM
same,TGI,HOP-18 NSCLC,> 100 µM
same,TGI,HCT-15 colon,> 100 µM
same,TGI,CCRF-CEM leukemia,> 100 µM
same,TGI,CAKI-1 renal,> 100 µM
same,TGI,RPMI-8226 leukemia,> 100 µM
same,TGI,SK-MEL-28 melanoma,> 100 µM
same,TGI,NCI-H23 lung,> 100 µM
COc1cc2cc3c4cc(OC)c(OC)cc4cc[n+]3c(C)c2cc1OC (tested in a mixture with another compound),TGI,OVCAR-3 ovarian,> 100 µM
same,TGI,MDA-MB-435,> 100 µM
same,TGI,UACC-62 melanoma,> 100 µM
same,TGI,ACHN renal,> 100 µM
same,TGI,A498 renal,> 100 µM
same,TGI,HCC-2998 colon,> 100 µM
same,TGI,XF 498 CNS,> 100 µM
same,TGI,OVCAR-8 ovarian,> 100 µM
same,TGI,NCI-H460 lung,> 100 µM
same,TGI,M14 melanoma,> 100 µM
same,TGI,BT-549 breast,> 100 µM
same,TGI,MCF7 breast,> 100 µM
same,TGI,SF-295 CNS,> 100 µM
same,TGI,UACC-257 melanoma,> 55.5 µM
same,TGI,UO-31 renal,> 100 µM
same,TGI,NCI-H522 lung,> 100 µM
same,TGI,K-562 leukemia,> 100 µM
same,TGI,SW-620 colon,> 100 µM
same,TGI,OVCAR-4 ovarian,> 100 µM
same,TGI,A549 NSCLC,> 100 µM
same,TGI,HL-60(TB) leukemia,> 100 µM
same,TGI,SK-MEL-2 melanoma,> 100 µM
same,TGI,NCI-H226 lung,> 45.6 µM
same,TGI,786-0 renal,> 100 µM
same,TGI,HT29 colon,> 69.1 µM
same,TGI,KM12 colon,> 100 µM
same,TGI,HOP-62 NSCLC,> 100 µM
same,TGI,SR leukemia,> 100 µM
same,TGI,HOP-92 NSCLC,> 100 µM
same,TGI,EKVX NSCLC,> 100 µM
same,TGI,SNB-19 CNS,> 100 µM
same,TGI,SK-OV-3 ovarian,> 100 µM
same,TGI,SN12C renal,> 100 µM
same,TGI,DMS 114 small cell lung,> 100 µM
same,TGI,DU-145 prostate,> 100 µM
same,TGI,T-47D breast,> 100 µM
same,TGI,HS 578T breast,> 100 µM
same,TGI,SF-539 CNS,> 100 µM
same,TGI,OVCAR-5 ovarian,> 100 µM
same,TGI,PC-3 prostate,> 100 µM
same,TGI,TK-10 renal,> 100 µM
same,TGI,KM20L2 colon,> 100 µM
same,TGI,U251 CNS,> 100 µM
same,TGI,MALME-3M melanoma,> 100 µM
same,TGI,HCT-116 colon,> 100 µM
same,TGI,COLO 205 colon,> 87.9 µM
same,TGI,LXFL 529 NSCLC,> 100 µM
same,TGI,M19-MEL melanoma,> 100 µM
same,TGI,SF-268 CNS,> 95 µM
same,TGI,LOX IMVI melanoma,> 100 µM
same,TGI,SNB-75 CNS,> 88.3 µM
same,TGI,MOLT-4 leukemia,> 100 µM
same,TGI,DLD-1 colon,> 100 µM
same,TGI,SK-MEL-5 melanoma,> 100 µM
same,TGI,RXF 393 renal,> 100 µM
same,TGI,DMS 273 small cell lung,> 100 µM
same,TGI,SNB-78 CNS,> 92.9 µM
same,TGI,IGROV1 ovarian,> 100 µM
same,TGI,NCI/ADR-RES ovarian,> 100 µM
same,TGI,HOP-18 NSCLC,> 100 µM
same,TGI,HCT-15 colon,> 100 µM
same,TGI,MDA-N,> 100 µM
same,TGI,CCRF-CEM leukemia,> 100 µM
same,TGI,MDA-MB-231 breast,> 100 µM
same,TGI,CAKI-1 renal,> 100 µM
same,TGI,RPMI-8226 leukemia,> 100 µM
same,TGI,SK-MEL-28 melanoma,> 100 µM
same,TGI,NCI-H23 lung,> 100 µM
